{"source": "BindingDB's records for patent US20240226107", "about": "(Simcere Zaiming Pharmaceutical Co., 2024)", "test_in_all_cases": "Assay for Inhibition of Compounds Provided in the Present Application on CYP Enzymes", "key": {"[1]": {"target": "T1, Cytochrome P450 1A2 (Homo sapiens, UniProt P05177)", "T1 sequence (P05177 whole entry)": "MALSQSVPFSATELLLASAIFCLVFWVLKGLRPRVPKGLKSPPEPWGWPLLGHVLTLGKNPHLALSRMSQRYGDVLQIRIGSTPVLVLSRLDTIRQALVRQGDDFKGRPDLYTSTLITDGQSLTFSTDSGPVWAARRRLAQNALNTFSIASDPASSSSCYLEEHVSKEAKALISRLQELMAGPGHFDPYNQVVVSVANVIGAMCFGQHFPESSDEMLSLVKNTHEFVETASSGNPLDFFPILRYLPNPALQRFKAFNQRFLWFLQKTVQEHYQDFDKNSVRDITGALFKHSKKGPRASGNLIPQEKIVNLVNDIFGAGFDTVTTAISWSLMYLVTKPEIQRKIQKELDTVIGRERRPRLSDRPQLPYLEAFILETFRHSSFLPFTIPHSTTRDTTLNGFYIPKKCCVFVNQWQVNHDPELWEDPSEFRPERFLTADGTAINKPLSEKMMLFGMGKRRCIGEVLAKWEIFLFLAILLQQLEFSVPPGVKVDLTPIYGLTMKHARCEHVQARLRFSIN", "experimental": "(§1) Typical substrate metabolic responses of five major human CYP subtypes (CYP1A2, CYP2C9, CYP2C19, CYP2D6, CYP3A4) were evaluated using 150-donor pooled human liver microsomes (purchased from Corning, Cat. No.: 452117). The influence of different concentrations of each compound to be tested on metabolic responses of phenacetin (CYP1A2), diclofenac sodium (CYP2C9), S-mephenytoin (CYP2C19), bufuralol hydrochloride (CYP2D6), and midazolam (CYP3A4) was determined by liquid chromatography-mass spectrometry (LC/MS/MS). The reaction system (200 μL) (100 mmol/L phosphate buffer, pH 7.4, containing DMSO, acetonitrile and methanol at a volume ratio of 0.3%:0.6%:0.1%) of 30 μM phenacetin, 10 μM diclofenac sodium, 35 μM S-mephenytoin, 5 μM bufuralol hydrochloride, 3 μM midazolam, 1 mM reduced nicotinamide adenine dinucleotide phosphate (NADPH), the compound to be tested (at concentrations of 0.1, 0.3, 1, 3, 10, 30 μmol/L, respectively), or positive compound or blank control, with pooled human liver microsomes (0.2 mg/mL) was incubated at 37° C. for 5 min. Then 200 μL of acetonitrile solution containing 3% formic acid and 40 nM internal standard verapamil was added and centrifuged at 4000 rpm for 50 min. The mixture was cooled on ice for 20 min and centrifuged at 4000 rpm for 20 min to precipitate the protein. Then 200 μL of supernatant was analyzed by LC-MS/MS.The peak area was calculated from the chromatogram."}, "[2]": {"target": "Cytochrome P450 2C19 (Homo sapiens, UniProt P33261)", "sequence (P33261 whole entry)": "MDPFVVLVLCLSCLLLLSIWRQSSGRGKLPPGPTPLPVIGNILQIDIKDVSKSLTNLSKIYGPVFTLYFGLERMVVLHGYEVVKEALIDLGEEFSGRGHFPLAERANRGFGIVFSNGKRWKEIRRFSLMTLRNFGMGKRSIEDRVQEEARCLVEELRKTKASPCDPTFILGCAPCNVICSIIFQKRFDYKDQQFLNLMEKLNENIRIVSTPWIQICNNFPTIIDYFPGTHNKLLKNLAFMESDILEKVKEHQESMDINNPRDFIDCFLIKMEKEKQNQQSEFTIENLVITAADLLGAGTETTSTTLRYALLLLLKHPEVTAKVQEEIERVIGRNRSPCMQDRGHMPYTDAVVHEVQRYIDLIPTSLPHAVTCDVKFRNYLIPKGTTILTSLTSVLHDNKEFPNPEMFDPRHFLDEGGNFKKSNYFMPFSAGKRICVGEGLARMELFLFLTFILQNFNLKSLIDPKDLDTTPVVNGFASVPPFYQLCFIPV", "experimental": "as §1"}, "[3]": {"target": "Cytochrome P450 2C9 (Homo sapiens, UniProt P11712)", "sequence (P11712 whole entry)": "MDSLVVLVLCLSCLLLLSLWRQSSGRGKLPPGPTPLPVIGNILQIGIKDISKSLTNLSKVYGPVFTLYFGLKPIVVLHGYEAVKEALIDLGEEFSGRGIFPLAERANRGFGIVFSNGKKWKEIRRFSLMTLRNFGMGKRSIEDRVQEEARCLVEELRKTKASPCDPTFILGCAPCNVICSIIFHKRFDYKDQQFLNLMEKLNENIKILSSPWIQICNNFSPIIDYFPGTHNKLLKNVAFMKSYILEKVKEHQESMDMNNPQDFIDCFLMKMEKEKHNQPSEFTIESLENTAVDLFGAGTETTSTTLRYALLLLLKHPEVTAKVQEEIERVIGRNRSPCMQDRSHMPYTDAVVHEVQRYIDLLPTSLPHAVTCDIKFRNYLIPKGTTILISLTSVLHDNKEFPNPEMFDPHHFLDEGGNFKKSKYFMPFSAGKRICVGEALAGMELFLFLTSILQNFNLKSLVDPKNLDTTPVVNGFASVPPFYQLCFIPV", "experimental": "as §1"}}, "data": [{"smiles": "COc1nccc(C2CC2)c1-c1ncc2c(n1)N(Cc1ccc(-c3nc(C(F)(F)F)cn3C)cc1)CC(=O)N2C", "note": "[US20240226107, Compound 11]", "values": [{"measurement": "IC50", "setting": "[1]", "result": "> 30", "unit": "µM"}, {"measurement": "IC50", "setting": "[2]", "result": 17.1, "unit": "µM"}, {"measurement": "IC50", "setting": "[3]", "result": 28.9, "unit": "µM"}]}]}
